This test addresses adenosine A2A receptor (Homo sapiens, UniProt P29274). In words: adenosine A2A receptor agonist assay (method of Murphree et al). Format: binding. The following applies: method of L. J. Murphree et al, Molecular Pharmacology 61, 455-462 (2002). The text has this: The compounds of (A) activate the adenosine […] receptor, i.e. they act as A2A receptor agonists.

Counter-ions that a name gives are not always drawn.

adenosine A2A receptor, sequence (P29274 whole entry): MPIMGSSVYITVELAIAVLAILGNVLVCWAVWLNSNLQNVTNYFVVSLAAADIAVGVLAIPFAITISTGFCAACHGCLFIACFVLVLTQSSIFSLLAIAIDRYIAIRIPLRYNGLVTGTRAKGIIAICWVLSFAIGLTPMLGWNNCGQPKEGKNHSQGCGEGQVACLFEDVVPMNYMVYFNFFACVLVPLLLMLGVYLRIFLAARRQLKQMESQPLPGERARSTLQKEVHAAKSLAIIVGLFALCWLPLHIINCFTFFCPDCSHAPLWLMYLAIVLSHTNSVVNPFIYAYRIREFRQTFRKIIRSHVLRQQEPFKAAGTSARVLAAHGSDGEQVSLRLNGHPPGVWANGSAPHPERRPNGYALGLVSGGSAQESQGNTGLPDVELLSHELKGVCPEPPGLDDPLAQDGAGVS

With `COC(=O)N[C@H]1C[C@@H](n2cnc3c(NCC(c4ccccc4)c4ccccc4)nc(N4CC[C@@H](NC(=O)Nc5cccnc5)C4)nc32)[C@H](O)[C@@H]1O` [Example 1, ((1S,2R,3S,4R)-4-{6-(2,2-Diphenyl-ethylamino)-2-[(R)-3-(3-pyridin-3-yl-ureido)-pyrrolidin-1-yl]-purin-9-yl}-2,3-dihydroxy-cyclopentyl)-carbamic acid methyl ester hydrochloride], the Ki is 4 nM.

Values taken from patent US20090181934A1, “Organic Compounds” (Novartis AG, priority 2007, published 2009).
